What all share (format): functional
The test system of assay [1] is Saccharomyces cerevisiae. Kind of assay: Zone of inhibition for Saccharomyces cerevisiae IFO 0203 at 0.125 ug/disc by conventional paper disk method.
In assay [2] the test system is Saccharomyces cerevisiae. In words: Zone of inhibition for Saccharomyces cerevisiae IFO 0203 at 0.05 ug/disc by conventional paper disk method.
In assay [3] the test system is Saccharomyces cerevisiae. Kind of assay: Zone of inhibition for Saccharomyces cerevisiae IFO 0203 at 0.25 ug/disc by conventional paper disk method.
Assay [4] has as its system Saccharomyces cerevisiae. In words: Zone of inhibition for Saccharomyces cerevisiae IFO 0203 at 0.025 ug/disc by conventional paper disk method.

In turn, `COc1ccnc(C(=O)N[C@H]2COC(=O)[C@H](Cc3ccccc3)[C@@H](OC(=O)C(C)C)[C@H](C)OC2=O)c1OC(C)=O` displayed a zone of inhibition at 0.125 µg/disc in the assay with Saccharomyces cerevisiae [1] of 14 mm. In the assay with Saccharomyces cerevisiae [2], this molecule came in with a zone of inhibition at 0.05 µg/disc of 12 mm. In addition, the zone of inhibition at 0.25 µg/disc in the assay with Saccharomyces cerevisiae [3] came out at 18 mm. In the assay on Saccharomyces cerevisiae [4], the zone of inhibition at 0.025 µg/disc was found to be 10 mm.
The corresponding values for `COc1ccnc(C(=O)N[C@H]2COC(=O)[C@H](Cc3ccccc3)[C@@H](OC(=O)C(C)C)[C@H](C)OC2=O)c1OC(=O)CCCCCC(=O)Oc1ccccc1` are 15 mm, 10 mm, 18 mm and 8 mm.
For the molecule `CC(C)C(=O)O[C@H]1[C@H](C)OC(=O)[C@@H](NC(=O)c2nc3ccccc3nc2O)COC(=O)[C@@H]1Cc1ccccc1`, the zone of inhibition at 0.125 µg/disc with Saccharomyces cerevisiae [1] came out at 20 mm. The molecule further returned a zone of inhibition at 0.05 µg/disc in the assay on Saccharomyces cerevisiae [2] of 18 mm. In the assay on Saccharomyces cerevisiae [3], the zone of inhibition at 0.25 µg/disc worked out at 24 mm. For the same molecule, the zone of inhibition at 0.025 µg/disc in the assay on Saccharomyces cerevisiae [4] was found to be 14 mm.
The corresponding values for `CC(C)C(=O)O[C@H]1[C@H](C)OC(=O)[C@@H](NC(=O)c2cccnc2O)COC(=O)[C@@H]1Cc1ccccc1` are 16 mm, 12 mm, 17 mm and 0 mm.
The corresponding values for `COc1ccc(O)c(C(=O)N[C@H]2COC(=O)[C@H](Cc3ccccc3)[C@@H](OC(=O)C(C)C)[C@H](C)OC2=O)n1` are 24 mm, 19 mm, 27 mm and 16 mm.
The corresponding values for `COc1ccnc(C(=O)N[C@H]2COC(=O)[C@H](Cc3ccc([N+](=O)[O-])cc3)[C@@H](OC(=O)C(C)C)[C@H](C)OC2=O)c1O` are 18 mm, 15 mm, 20 mm and 12 mm.
`COc1ccnc(C(=O)N[C@H]2COC(=O)[C@H](Cc3ccc(N(C)C)cc3)[C@@H](OC(=O)C(C)C)[C@H](C)OC2=O)c1O` returned a zone of inhibition at 0.125 µg/disc with Saccharomyces cerevisiae [1] of 15 mm. In addition, in the assay with Saccharomyces cerevisiae [2], the zone of inhibition at 0.05 µg/disc was found to be 11 mm. The zone of inhibition at 0.25 µg/disc with Saccharomyces cerevisiae [3] was determined as 19 mm. Also, in the assay with Saccharomyces cerevisiae [4], the zone of inhibition at 0.025 µg/disc turned out to be 0 mm.
The corresponding values for `CC(C)C(=O)O[C@H]1[C@H](C)OC(=O)[C@@H](NC(=O)c2cccc(NC=O)c2O)COC(=O)[C@@H]1Cc1ccccc1` are 16 mm, 12 mm, 17 mm and 8 mm.
The corresponding values for `CC(C)C(=O)O[C@H]1[C@H](C)OC(=O)[C@@H](NC(=O)c2cccc(N(C)C)c2O)COC(=O)[C@@H]1Cc1ccccc1` are 12 mm, 8 mm, 14 mm and 8 mm.
In the assay on Saccharomyces cerevisiae [1], `COc1ccnc(C(=O)N[C@H]2COC(=O)[C@H](Cc3ccc(NC=O)cc3)[C@@H](OC(=O)C(C)C)[C@H](C)OC2=O)c1O` showed a zone of inhibition at 0.125 µg/disc of 0 mm. In the assay on Saccharomyces cerevisiae [2], this molecule yielded a zone of inhibition at 0.05 µg/disc of 0 mm. The zone of inhibition at 0.25 µg/disc in the assay with Saccharomyces cerevisiae [3] was 0 mm. In addition, the zone of inhibition at 0.025 µg/disc with Saccharomyces cerevisiae [4] stood at 0 mm.
`COc1ccnc(C(=O)N[C@H]2COC(=O)[C@H](Cc3ccccc3)[C@@H](OC(=O)C(C)C)[C@H](C)OC2=O)c1O`: the zone of inhibition at 0.125 µg/disc in the assay on Saccharomyces cerevisiae [1] was found to be 26 mm. In the assay with Saccharomyces cerevisiae [2], the zone of inhibition at 0.05 µg/disc was 22 mm. Also, the zone of inhibition at 0.25 µg/disc with Saccharomyces cerevisiae [3] was 26 mm. In the assay with Saccharomyces cerevisiae [4], this molecule returned a zone of inhibition at 0.025 µg/disc of 19 mm.
As for `COc1ccnc(C(=O)N[C@H]2COC(=O)[C@H](Cc3ccc(N)cc3)[C@@H](OC(=O)C(C)C)[C@H](C)OC2=O)c1O`, the zone of inhibition at 0.125 µg/disc in the assay on Saccharomyces cerevisiae [1] turned out to be 8 mm. Besides, the zone of inhibition at 0.05 µg/disc in the assay with Saccharomyces cerevisiae [2] was 0 mm. The molecule also showed a zone of inhibition at 0.25 µg/disc in the assay on Saccharomyces cerevisiae [3] of 10 mm. Also, the zone of inhibition at 0.025 µg/disc in the assay with Saccharomyces cerevisiae [4] amounted to 0 mm.
The molecule `COc1ccnc(C(=O)N[C@H]2COC(=O)[C@H](Cc3ccccc3)[C@@H](OC(=O)C(C)C)[C@H](C)OC2=O)c1OC(=O)CCCCCC(=O)O` showed a zone of inhibition at 0.125 µg/disc in the assay on Saccharomyces cerevisiae [1] of 21 mm. In the assay with Saccharomyces cerevisiae [2], this molecule registered a zone of inhibition at 0.05 µg/disc of 16 mm. Besides, the zone of inhibition at 0.25 µg/disc with Saccharomyces cerevisiae [3] turned out to be 24 mm. In the assay on Saccharomyces cerevisiae [4], the zone of inhibition at 0.025 µg/disc amounted to 12 mm.
As to `CCOC(=O)COc1c(OC)ccnc1C(=O)N[C@H]1COC(=O)[C@H](Cc2ccccc2)[C@@H](OC(=O)C(C)C)[C@H](C)OC1=O`, in the assay on Saccharomyces cerevisiae [1], the zone of inhibition at 0.125 µg/disc was determined as 0 mm. Moreover, the zone of inhibition at 0.05 µg/disc in the assay on Saccharomyces cerevisiae [2] stood at 0 mm. In the assay with Saccharomyces cerevisiae [3], this molecule displayed a zone of inhibition at 0.25 µg/disc of 0 mm. Further, in the assay with Saccharomyces cerevisiae [4], the zone of inhibition at 0.025 µg/disc stood at 0 mm.
In the case of `CC(C)C(=O)O[C@H]1[C@H](C)OC(=O)[C@@H](NC(=O)c2ccccc2O)COC(=O)[C@@H]1Cc1ccccc1`, in the assay with Saccharomyces cerevisiae [1], the zone of inhibition at 0.125 µg/disc turned out to be 11 mm. The same molecule returned a zone of inhibition at 0.05 µg/disc in the assay with Saccharomyces cerevisiae [2] of 8 mm. The molecule also yielded a zone of inhibition at 0.25 µg/disc in the assay with Saccharomyces cerevisiae [3] of 12 mm. The molecule also came in with a zone of inhibition at 0.025 µg/disc with Saccharomyces cerevisiae [4] of 8 mm.
In turn, `COc1ccnc(C(=O)N[C@H]2COC(=O)[C@H](Cc3ccccc3)[C@@H](OC(=O)C(C)C)[C@H](C)OC2=O)c1OC` displayed a zone of inhibition at 0.125 µg/disc with Saccharomyces cerevisiae [1] of 0 mm. The zone of inhibition at 0.05 µg/disc in the assay with Saccharomyces cerevisiae [2] came out at 0 mm. Also, the zone of inhibition at 0.25 µg/disc with Saccharomyces cerevisiae [3] worked out at 0 mm. This molecule also yielded a zone of inhibition at 0.025 µg/disc with Saccharomyces cerevisiae [4] of 0 mm.
Take `CCCC[C@H]1C(=O)O[C@H](C)[C@H](NC(=O)c2cccc(NC=O)c2O)C(=O)O[C@@H](C)[C@@H]1OC(=O)CC(C)C` [ANTIMYCIN A3]: the zone of inhibition at 0.125 µg/disc in the assay with Saccharomyces cerevisiae [1] was determined as 19 mm. The same molecule showed a zone of inhibition at 0.05 µg/disc in the assay on Saccharomyces cerevisiae [2] of 18 mm. Also, in the assay with Saccharomyces cerevisiae [3], the zone of inhibition at 0.25 µg/disc was 26 mm. The molecule also came in with a zone of inhibition at 0.025 µg/disc in the assay with Saccharomyces cerevisiae [4] of 16 mm.

As usually defined, the zone of inhibition is the extent of the growth-free halo in a diffusion test.
